We go through one compound from patent US20240100053A1, “PHARMACEUTICAL COMPOSITION” (priority 2021, published 2024).

The structures appear in SMILES notation.

Data set [1] relates to PK-1 cells. Description: Cell proliferation by ATP assay, FGFR4-high PK-1 cells. It is filed as cell-based. Conditions: PK-1 cells (high FGFR4); 250 nM, 500 nM, 1 μM or 2 μM; 72 hours; volume-dependent manner; FIG. 3A. As to the method:
(§1) After 72 hours of incubation, the effect on cell proliferation was examined by ATP assay.

Data set [2] has as its system PK-1 cells. Kind of data set: Cell invasion, Corning Matrigel Invasion Chamber. It is filed as cell-based. As to conditions: 2 μM, 16 hours, FIG. 5. How it is done: 1×10^5 cells/500 μL of PK-1 cells were seeded on top of the insert.
For data set [3], the system named is PK-1 cells and PK-45P cells. Kind of data set: Cytotoxicity by FACS using annexin V and PI. It is filed as cell-based. Conditions: 2 μM, FIG. 3B. (In general: Flow cytometry measures light scatter and fluorescence of single cells or particles in a stream.)
A further data set concerns PK-45P cells. Kind of data set: Cell proliferation by ATP assay, FGFR4-low PK-45P cells. It is filed as cell-based. Conditions: PK-45P cells (low FGFR4); 250 nM to 2 μM; 72 hours; FIG. 3A. How it is done:
as §1

The subject of a further data set is FGFR1-3. Conditions: general statement in the description, no test shown; cited from earlier work.
The subject of data set [4] is PK-1 cells and PK-45P cells. Description: Cell cycle by FACS. The data set is classed as cell-based. Conditions: after addition of BLU9931, FIG. 3C.
Another data set deals with phosphorylation of H2A.X. Kind of data set: DNA damage by phosphorylation of H2A.X (immunofluorescence). It is filed as cell-based. Conditions: incubation time increased from 3 days to 7 days; FIG. 7. How it is done: BLU9931-treated cells were incubated with anti-γHA2.X mouse monoclonal antibody at 4° C. overnight. Cells were treated with Alexa-Fluor-conjugated secondary antibodies and nuclear staining was performed with DAPI.

The subject of data set [5] is PK-1 cells. Kind of data set: Cellular aging: morphology and SA-β-Gal staining. It is filed as cell-based. Conditions: 2 μM. How it is done: In this example, an aging of cells by BLU9931 was examined. […] This morphological change was considered to be due to cellular aging. The present inventors measured the activity of senescence-associated β-galactosidase (SA-β-Gal), a marker of cellular aging.
After staining, nuclear staining was performed with DAPI.

In data set [6] the test system is ERK, AKT, and STAT3 downstream of FGF19/FGFR4 signaling. Description: Immunoblotting of ERK, AKT, STAT3 in PK-1 cells. The data set is classed as cell-based. As to conditions: 2 μM, FIG. 4.
Data set [7] shares this test system. Kind of data set: Immunoblotting of ERK, AKT, STAT3 in PK-45P cells. The data set is classed as cell-based. Conditions: FIG. 4. (In general: A western blot detects proteins with antibodies after separation by electrophoresis.)

Regarding `C=CC(=O)Nc1cccc(C)c1Nc1ncc2cc(-c3c(Cl)c(OC)cc(OC)c3Cl)ccc2n1` [BLU9931], the cell proliferation entry with PK-1 cells [1] was “suppressed”. In addition, the cell invasion entry in the data set with PK-1 cells [2] is recorded as “inhibited”. In [3], the “apoptosis, necrosis, or cell damage observed in cells” value is recorded as no more than 2% and the cytotoxicity entry is on record as “no significant effects”. In the data set on PK-45P cells, the cell proliferation entry is “no effect”. Further, the “inhibition of FGFR1-3” value in the data set with FGFR1-3 was “does not inhibit”. Besides, the “number of cells in S phase” value in [4] (20.7% without) was determined as 13.5%. Further, in data set [4] (60.7% without), the “number of cells in G0/G1 phase” value came out at 70.1%. The “DNA damage of the cells” value in the data set with phosphorylation of H2A.X is recorded as “progressed”. The “number of SA-β-Gal positive cells compared to the control cells” value with PK-1 cells [5] (FIG. 6) is on record as “increased”. In addition, the “cell morphology compared to the control cells” value in the data set with PK-1 cells [5] (PK-1 cells, 1 week, FIG. 6A) is “larger and flattened”. In data set [6], the “expression of AKT” value is recorded as “decreased”, the “expression of ERK” value was “decreased” and the “expression of STAT3” value is “decreased”. In data set [7], the “expression of AKT” value is recorded as “not decreased”, the “expression of ERK” value is given as “not decreased” and the “expression of STAT3” value was “not decreased”.
